Experimental data: patent publication US20070117770A1, “Human ribosomal DNA (rDNA) and ribosomal RNA (rRNA) nucleic acids and uses thereof” (Cylene Pharmaceuticals, Inc., priority 2005, published 2007)

Key:
Assay in all cases: Protein kinase inhibition assay
Format in all cases: biochemical
[1] = biological target: MEK1(h) (Homo sapiens, UniProt Q02750); details: read-out: percent residual activity of MEK1(h)
Procedure: (§1) Certain compounds were tested for activity in protein kinase inhibition assays. All substrates were dissolved and diluted to working stocks in de-ionized water, apart from histone H1 (10× working stock in 20 mM MOPS pH 7.0), PDKtide (10× working stock in 50 mM Tris pH 7.0) ATF2 (which is typically stored at a 20× working stock in 50 mM Tris pH 7.5, 150 mM NaCl, 0.1 mM EGTA, 0.03% Brij-35, 50% glycerol, 1 mM benzamidine, 0.2 mM PMSF and 0.1% R-mercaptoethanol), KKLNRTLSFAEPG (SEQ ID NO:203) and RRRLSFAEPG (SEQ ID NO:204) (50 mM HEPES pH 7.4) and GGEEEEYFELVKKKK (SEQ ID NO:205) (20 mM MOPS pH 7.0). All kinases were pre-diluted to a 10× working concentration prior to addition into the assay. The composition of the dilution buffer for each kinase is detailed below.
The reaction is initiated by the addition of the MgATP. After incubation for 40 minutes at room temperature, 5 μl of this incubation mix is used to initiate a MAPK2 (m) assay, which is described on page 12 of this book.

[2] = biological target: FGFR2(h) (Homo sapiens, UniProt P21802); details: read-out: percent residual activity of FGFR2(h)
Procedure: as §1
(§2) In a final reaction volume of 25 μl, FGFR2 (h) (5-10 mU) is incubated with 8 mM MOPS pH 7.0, 0.2 mM EDTA, 2.5 mM MnCl2, 0.1 mg/ml poly(Glu, Tyr) 4:1, 10 mM MgAcetate and [gamma-33P-ATP] (specific activity approx. 500 cpm/pmol, concentration as required). The reaction is initiated by the addition of the MgATP mix. After incubation for 40 minutes at room temperature, the reaction is stopped by the addition of 5 μl of a 3% phosphoric acid solution. 10 μl of the reaction is then spotted onto a Filtermat A and washed three times for 5 minutes in 75 mM phosphoric acid and once in methanol prior to drying and scintillation counting.

[3] = biological target: SAPK2a(h) (Homo sapiens, UniProt Q16539); details: read-out: percent residual activity of SAPK2a(h)
Procedure: as §1
In a final reaction volume of 25 μl, SAPK2a (h) (5-10 mU) is incubated with 25 mM Tris pH 7.5, 0.02 mM EGTA, 0.33 mg/ml myelin basic protein, 10 mM MgAcetate and [gamma-33P-ATP] (specific activity approx. 500 cpm/pmol, concentration as required). The reaction is initiated by the addition of the MgATP mix. After incubation for 40 minutes at room temperature, the reaction is stopped by the addition of 5 μl of a 3% phosphoric acid solution. 10 μl of the reaction is then spotted onto a P30 filtermat and washed three times for 5 minutes in 75 mM phosphoric acid and once in methanol prior to drying and scintillation counting.

[4] = biological target: JAK3(h) (Homo sapiens, UniProt P52333); details: read-out: percent residual activity of JAK3(h)
Procedure: as §1
as §2, with “JAK3” for “FGFR2”, “500 μM GGEEEEYFELVKKKK (SEQ ID NO:218),” for “2.5 mM MnCl2, 0.1 mg/ml poly(Glu, Tyr) 4:1,”, “P30 filtermat” for “Filtermat A”

[5] = biological target: Arg(h) (Homo sapiens, UniProt P42684); details: read-out: percent residual activity of Arg(h)
Procedure: as §1
as §2, with “μl, Arg” for “μl, FGFR2”, “EDTA, 50 μM EAIYAAPFAKKK (SEQ ID NO:206),” for “EDTA, 2.5 mM MnCl2, 0.1 mg/ml poly(Glu, Tyr) 4:1,”, “10 pi” for “10 μl”, “a P30 filtermat” for “a Filtermat A”

[6] = biological target: Arg(m) (Mus musculus, UniProt Q4JIM5); details: read-out: percent residual activity of Arg(m)
Procedure: as §1
as §2, with “Arg (m)” for “FGFR2 (h)”, “50 μM EAIYAAPFAKKK (SEQ ID NO:206),” for “2.5 mM MnCl2, 0.1 mg/ml poly(Glu, Tyr) 4:1,”, “P30 filtermat” for “Filtermat A”

[7] = biological target: PKCθ(h) (Homo sapiens, UniProt Q04759); details: read-out: percent residual activity of PKCθ(h)
Procedure: as §1
as §2, with “PKCθ” for “FGFR2”, “EDTA,” for “EDTA, 2.5 mM MnCl2,”, “histone H1,” for “poly(Glu, Tyr) 4:1,”, “P30 filtermat” for “Filtermat A”

FGFR2(h), sequence (P21802 22-821): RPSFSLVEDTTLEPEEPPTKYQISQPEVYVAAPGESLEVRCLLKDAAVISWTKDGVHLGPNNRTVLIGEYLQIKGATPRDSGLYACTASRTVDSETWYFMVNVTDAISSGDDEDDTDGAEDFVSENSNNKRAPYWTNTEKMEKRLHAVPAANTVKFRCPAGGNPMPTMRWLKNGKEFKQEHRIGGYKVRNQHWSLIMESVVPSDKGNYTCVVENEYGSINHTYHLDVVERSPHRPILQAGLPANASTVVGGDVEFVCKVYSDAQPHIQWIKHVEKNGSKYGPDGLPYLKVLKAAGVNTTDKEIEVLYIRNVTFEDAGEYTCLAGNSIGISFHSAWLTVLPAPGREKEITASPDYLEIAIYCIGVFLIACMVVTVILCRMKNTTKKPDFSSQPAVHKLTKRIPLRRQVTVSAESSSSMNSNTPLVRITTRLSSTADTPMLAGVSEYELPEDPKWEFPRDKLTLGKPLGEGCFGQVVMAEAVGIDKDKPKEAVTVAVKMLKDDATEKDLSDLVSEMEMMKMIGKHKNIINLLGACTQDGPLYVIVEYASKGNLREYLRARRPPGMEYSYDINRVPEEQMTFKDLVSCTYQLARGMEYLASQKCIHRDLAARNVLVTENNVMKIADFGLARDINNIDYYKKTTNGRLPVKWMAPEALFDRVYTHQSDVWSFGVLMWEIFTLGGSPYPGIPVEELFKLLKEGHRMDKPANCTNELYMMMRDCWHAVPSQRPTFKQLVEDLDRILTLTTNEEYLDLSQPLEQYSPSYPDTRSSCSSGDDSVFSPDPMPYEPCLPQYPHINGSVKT
JAK3(h), sequence (P52333 whole entry): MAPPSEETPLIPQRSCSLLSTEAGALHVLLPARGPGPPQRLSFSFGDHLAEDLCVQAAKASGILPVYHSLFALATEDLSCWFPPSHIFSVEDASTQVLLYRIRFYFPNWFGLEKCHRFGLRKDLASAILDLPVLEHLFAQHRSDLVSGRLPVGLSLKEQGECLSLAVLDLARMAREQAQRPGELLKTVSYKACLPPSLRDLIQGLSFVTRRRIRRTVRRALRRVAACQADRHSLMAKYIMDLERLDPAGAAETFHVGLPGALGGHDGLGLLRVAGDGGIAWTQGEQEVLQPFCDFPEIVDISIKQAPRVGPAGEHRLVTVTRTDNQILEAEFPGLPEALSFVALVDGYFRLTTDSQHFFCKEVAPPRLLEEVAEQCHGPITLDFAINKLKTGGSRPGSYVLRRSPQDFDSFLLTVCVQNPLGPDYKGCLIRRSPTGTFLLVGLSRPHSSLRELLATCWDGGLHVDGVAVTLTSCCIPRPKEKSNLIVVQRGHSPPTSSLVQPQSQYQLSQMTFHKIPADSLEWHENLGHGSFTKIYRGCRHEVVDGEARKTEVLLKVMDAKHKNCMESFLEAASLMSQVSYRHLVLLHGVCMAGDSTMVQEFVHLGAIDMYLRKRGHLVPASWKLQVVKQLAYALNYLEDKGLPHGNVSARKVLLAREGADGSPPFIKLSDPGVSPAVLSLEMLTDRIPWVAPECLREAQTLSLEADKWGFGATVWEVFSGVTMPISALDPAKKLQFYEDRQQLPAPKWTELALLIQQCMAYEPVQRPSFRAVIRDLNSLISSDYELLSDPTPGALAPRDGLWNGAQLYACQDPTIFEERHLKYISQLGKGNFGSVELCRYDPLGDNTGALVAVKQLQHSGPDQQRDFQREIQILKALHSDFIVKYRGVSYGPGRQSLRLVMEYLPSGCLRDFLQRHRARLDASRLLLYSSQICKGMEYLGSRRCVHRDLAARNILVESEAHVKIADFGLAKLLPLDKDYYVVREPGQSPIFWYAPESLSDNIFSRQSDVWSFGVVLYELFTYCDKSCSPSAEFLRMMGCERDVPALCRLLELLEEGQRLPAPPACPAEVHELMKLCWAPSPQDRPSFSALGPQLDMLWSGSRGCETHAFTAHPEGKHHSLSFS
SAPK2a(h), sequence (Q16539 whole entry): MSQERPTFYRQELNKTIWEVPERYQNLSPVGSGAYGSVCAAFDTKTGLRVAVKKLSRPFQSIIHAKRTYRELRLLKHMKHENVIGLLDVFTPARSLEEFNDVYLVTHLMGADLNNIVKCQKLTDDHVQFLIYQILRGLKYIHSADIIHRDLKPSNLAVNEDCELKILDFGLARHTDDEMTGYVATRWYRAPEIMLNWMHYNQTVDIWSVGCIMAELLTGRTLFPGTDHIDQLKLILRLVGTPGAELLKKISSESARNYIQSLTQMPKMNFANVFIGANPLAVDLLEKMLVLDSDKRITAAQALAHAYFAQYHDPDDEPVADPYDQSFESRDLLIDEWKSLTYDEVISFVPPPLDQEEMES
PKCθ(h), sequence (Q04759 whole entry): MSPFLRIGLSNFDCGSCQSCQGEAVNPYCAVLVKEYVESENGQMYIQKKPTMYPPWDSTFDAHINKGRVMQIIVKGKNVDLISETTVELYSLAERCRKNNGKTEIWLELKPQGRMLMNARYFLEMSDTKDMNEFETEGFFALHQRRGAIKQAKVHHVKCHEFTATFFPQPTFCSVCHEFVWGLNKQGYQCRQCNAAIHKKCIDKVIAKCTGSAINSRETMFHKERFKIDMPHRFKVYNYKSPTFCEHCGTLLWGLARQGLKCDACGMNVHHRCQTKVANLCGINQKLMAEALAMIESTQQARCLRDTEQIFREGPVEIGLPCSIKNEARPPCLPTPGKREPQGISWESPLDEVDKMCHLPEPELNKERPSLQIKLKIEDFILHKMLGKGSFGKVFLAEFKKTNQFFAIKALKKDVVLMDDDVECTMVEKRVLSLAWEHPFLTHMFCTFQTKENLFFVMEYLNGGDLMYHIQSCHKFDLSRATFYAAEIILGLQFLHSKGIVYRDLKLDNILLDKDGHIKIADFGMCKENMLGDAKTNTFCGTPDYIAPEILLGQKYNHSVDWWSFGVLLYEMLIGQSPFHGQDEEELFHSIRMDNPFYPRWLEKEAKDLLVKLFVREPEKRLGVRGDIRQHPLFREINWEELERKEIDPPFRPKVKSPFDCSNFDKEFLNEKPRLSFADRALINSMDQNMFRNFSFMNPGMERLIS
Arg(m), sequence (Q4JIM5 whole entry): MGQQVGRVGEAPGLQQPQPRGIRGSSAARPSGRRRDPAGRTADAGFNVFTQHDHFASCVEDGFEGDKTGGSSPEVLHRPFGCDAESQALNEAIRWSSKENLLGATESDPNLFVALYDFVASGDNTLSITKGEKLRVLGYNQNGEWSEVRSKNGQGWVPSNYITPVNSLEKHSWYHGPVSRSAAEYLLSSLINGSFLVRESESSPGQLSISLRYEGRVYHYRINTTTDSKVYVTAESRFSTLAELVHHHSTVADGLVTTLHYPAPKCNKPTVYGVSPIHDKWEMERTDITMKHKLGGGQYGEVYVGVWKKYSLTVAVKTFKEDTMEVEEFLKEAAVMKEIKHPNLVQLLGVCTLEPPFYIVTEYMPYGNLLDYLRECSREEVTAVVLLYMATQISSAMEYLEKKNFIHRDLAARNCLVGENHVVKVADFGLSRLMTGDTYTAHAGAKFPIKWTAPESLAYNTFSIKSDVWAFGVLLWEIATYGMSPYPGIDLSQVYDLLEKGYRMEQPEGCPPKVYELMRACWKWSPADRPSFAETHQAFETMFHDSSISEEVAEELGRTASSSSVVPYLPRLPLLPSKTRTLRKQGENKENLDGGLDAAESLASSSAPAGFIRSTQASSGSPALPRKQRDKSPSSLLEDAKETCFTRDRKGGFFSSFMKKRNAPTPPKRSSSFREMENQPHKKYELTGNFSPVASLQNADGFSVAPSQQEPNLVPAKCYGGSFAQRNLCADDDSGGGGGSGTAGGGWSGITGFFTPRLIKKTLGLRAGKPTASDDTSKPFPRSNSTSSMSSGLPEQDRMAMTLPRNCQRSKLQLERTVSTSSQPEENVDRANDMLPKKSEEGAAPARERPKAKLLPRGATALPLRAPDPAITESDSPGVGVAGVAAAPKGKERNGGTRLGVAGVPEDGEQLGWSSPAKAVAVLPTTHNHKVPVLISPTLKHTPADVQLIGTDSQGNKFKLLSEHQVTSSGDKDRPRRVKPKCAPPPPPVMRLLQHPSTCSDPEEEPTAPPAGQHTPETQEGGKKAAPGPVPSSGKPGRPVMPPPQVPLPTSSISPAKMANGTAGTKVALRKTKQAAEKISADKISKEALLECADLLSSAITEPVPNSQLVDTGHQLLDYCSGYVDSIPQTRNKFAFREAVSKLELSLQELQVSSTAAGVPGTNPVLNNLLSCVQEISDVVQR
MEK1(h), sequence (Q02750 whole entry): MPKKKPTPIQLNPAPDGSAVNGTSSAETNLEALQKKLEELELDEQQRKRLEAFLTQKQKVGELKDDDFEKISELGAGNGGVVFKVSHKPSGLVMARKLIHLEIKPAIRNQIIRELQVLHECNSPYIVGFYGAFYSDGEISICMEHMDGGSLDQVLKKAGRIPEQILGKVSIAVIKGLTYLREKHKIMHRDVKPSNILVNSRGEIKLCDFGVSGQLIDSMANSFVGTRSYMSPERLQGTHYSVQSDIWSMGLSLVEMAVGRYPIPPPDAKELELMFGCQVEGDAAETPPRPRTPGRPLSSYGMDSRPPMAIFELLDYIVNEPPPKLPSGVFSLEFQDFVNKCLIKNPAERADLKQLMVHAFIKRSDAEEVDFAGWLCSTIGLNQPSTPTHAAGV

| Compound | remaining activity at 2.5 µM [1] [%] | remaining activity at 2.5 µM [2] [%] | remaining activity at 2.5 µM [3] [%] | remaining activity at 2.5 µM [4] [%] | remaining activity at 2.5 µM [5] [%] | remaining activity at 2.5 µM [6] [%] | remaining activity at 2.5 µM [7] [%] |
| --- | --- | --- | --- | --- | --- | --- | --- |
| CN1CCCC1CCNC(=O)c1cn2c3c(c(N4CCC(c5cnccn5)C4)c(F)cc3c1=O)Oc1cc3ccccc3cc1-2 (centres unmarked) [Compound A-1] | 87 | 76 | 97 | 112 | 46 | 43 | 91 |
| CC(=O)N1CCN(c2ccc3c(=O)c(C(=O)NCCN4CCCC4)c4n(C)c5ccccc5n4c3n2)CC1 [Compound B-1] | 90 | 89 | 103 | 109 | 94 | 102 | 108 |
